Consider 31 molecules from PubChem BioAssay (NCI).

What is called TGI is the concentration at which net growth stops. Broadly, the GI50 is the concentration that inhibits growth by half.

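Compound exposure: 48 hours, 5 concentrations, 96-well plates. GI50: concentration for 50% inhibition of growth. TGI is the concentration that stops growth completely.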

Experiment in all cases: DTP human tumour cell line panel, 48 h
For test [1], the system named is HT29 colon.
The subject of test [2] is KM12 colon.
Test [3] relates to OVCAR-3 ovarian.
For test [4], the system named is OVCAR-5 ovarian.
Test [5] deals with SF-268 CNS.
Test [6] concerns SF-295 CNS.
Test [7] deals with SF-539 CNS.
The test system of test [8] is SK-MEL-5 melanoma.
The test system of test [9] is UO-31 renal.
In test [10] the test system is DU-145 prostate.

For the molecule `O=C(c1ccccc1)[C@H]1Nc2cnccc2C2c3ccccc3CC21` (stereo not given in full), the TGI in [1] is 50.5 µM; in test [2], more than 61.3 µM; in test [3] it was 29.7 µM; in test [4], 74.1 µM; in test [5], 59.9 µM; in test [6] it was 48.3 µM. Moreover, the TGI in test [7] was more than 62.6 µM; in test [8] it was 10.1 µM; in test [9], more than 40.4 µM.
Regarding `NS(=O)(=O)c1nnc(NSc2ccc([N+](=O)[O-])cc2)s1`, the TGI in test [10], in [3], in test [4], in test [5], in [6] and in test [8] was more than 100 µM each time. The concentration for total growth inhibition (TGI) in [9] was more than 100 µM.
In the case of `CN1c2ccccc2C(=O)NC12CCN(CC1COc3ccccc3O1)CC2` (stereo not given), the TGI in [10], in [1], in [2], in [4], in test [5] and in [6] was more than 100 µM in each case. Moreover, the TGI is more than 100 µM in test [7], 41.5 µM in [8] and more than 100 µM in test [9].
In the case of `C=C1CC=CC(C)(C)C1C/C=C(\C)C(O)CBr` (stereo not given), the TGI in test [10], in [1], in [2], in test [4], in [5] and in [6] was more than 100 µM in each case. The TGI in test [7], in test [8] and in test [9] was more than 100 µM each time.
As for `CCOC(=O)/C(=C/c1ccco1)P(=O)(OCC)OCC`, the TGI in [1], in [2], in test [4], in test [5], in test [6] and in test [7] was more than 100 µM in each case. Further, the TGI in test [8] and in test [9] was more than 100 µM each time.
`NC(CCSCC(F)F)C(=O)O` (stereo not given): the TGI in [1], in test [2], in test [3], in test [4], in [5] and in test [6] was more than 100 µM in each case. In addition, the TGI in test [7], in test [8] and in test [9] was more than 100 µM throughout.
As to `OC(c1ccco1)C(F)(F)c1nc2ccccc2o1` (stereo not given), the TGI in test [10], in test [1], in [2], in test [5], in test [6] and in test [7] was more than 100 µM in each case. The TGI in test [8] and in test [9] was more than 100 µM in each case.
For the molecule `CC/C=C\C/C=C\C/C=C\CCCCCCCC(=O)OC(COC(=O)CCCCCCCCCCCCCCCCC)COC1OC(CO)C(O)C(O)C1O` (stereo not given), the TGI in test [10], in test [1], in test [2], in test [3], in test [4] and in test [5] was more than 25 µM throughout. In addition, the TGI in [6], in test [8] and in test [9] was more than 25 µM throughout.
In the case of `FC(F)=C(c1ccc(-c2ccc(Cl)cc2)cc1)C(F)(F)F`, the TGI turned out to be 34.6 µM in test [10]; 67.4 µM in test [1]; 36.7 µM in test [2]; 31.3 µM in test [4]; 56.3 µM in test [5]; 56.7 µM in [6]. Also, the figures for the TGI in test [7], in test [8] and in test [9] were 45.3 µM, 32.9 µM and 31 µM, respectively.
`COC(=O)c1cc(C(=O)OC)cc(-c2ccc3c(c2)-c2nc4c(c(-c5ccc(OC)cc5)c2CC3)CCc2ccc(-c3cc(C(=O)OC)cc(C(=O)OC)c3)cc2-4)c1`: the TGI in test [10] was more than 100 µM; in test [2], more than 100 µM; in test [3], more than 100 µM; in test [4], 31.8 µM; in test [5], more than 100 µM; in [6] it was more than 100 µM. In addition, the TGI in test [8] and in [9] was more than 100 µM each time.
As for `Cc1cc(C)nc(NS(=O)(=O)c2ccc(Nc3c4ccccc4nc4c(C(=O)N5CCN(CCOS(C)(=O)=O)CC5)ccc(Cl)c34)cc2)n1`, the TGI in [1], in test [2], in [3], in test [4], in [5] and in test [6] was more than 100 µM each time. Further, the TGI in test [7], in [8] and in [9] was more than 100 µM throughout.
For `O=C1c2c(c3c4ccc(Br)cc4oc3c3[nH]c4ccccc4c23)C(=O)N1O`, in [10], the GI50 is 3.23 µM and the TGI is more than 100 µM. Moreover, in test [8], the GI50 was 1.48 µM and the TGI is 3.27 µM.
For `O=c1c(Cc2ccccc2)c(-c2ccccc2)[nH]n1C1=NCCN1`, the TGI in [1] was 57 µM; in test [2], more than 100 µM; in test [3], more than 100 µM; in test [4] it was more than 100 µM; in [5], more than 100 µM; in test [6] it was more than 100 µM. Further, the TGI in [7], in [8] and in test [9] was more than 100 µM in each case.
In the case of `CCC1(CC)C(=O)NC(=S)N=C1N`, the TGI in [1], in test [3], in test [4], in test [5], in test [6] and in [7] was more than 100 µM in each case. The molecule also showed a TGI in [9] of more than 100 µM.
`N#CC(C#N)=Cc1cccc(Oc2ccccc2)c1`: the TGI was 49.9 µM in test [1]; 53.2 µM in test [2]; 72 µM in test [3]; more than 100 µM in test [4]; 40.6 µM in test [5]; 45.5 µM in [6]. The figures for the TGI in test [7], in [8] and in test [9] were 35.1 µM, 36.6 µM and 30.8 µM, respectively.
Consider `CC1(C)[C@@H]2C[C@H]1c1cnc(-c3ccccn3)cc1[C@H]2C(O)[C@@H]1c2cc(-c3ccccn3)ncc2[C@H]2C[C@@H]1C2(C)C` (stereo not given in full), for which the TGI came to 3.47 µM in test [10]; 3.57 µM in test [1]; 24.7 µM in test [2]; 1.77 µM in test [3]; 18 µM in test [4]; 16.6 µM in test [5]. Besides, the TGI in test [6] stood at 11.4 µM; in test [8], 1.42 µM; in [9], 0.445 µM.
For the molecule `COC(=O)/C(=N\NC(=S)NN)C(C(=O)C(=O)Nc1ccccc1C(N)=O)c1nc2ccccc2[nH]c1=O` (stereo not given), the TGI in test [2], in test [4], in test [5], in test [6], in [7] and in test [8] was more than 100 µM in each case. For the same molecule, the TGI in test [9] is more than 100 µM.
Regarding `O=C1CCn2c([nH]c3cccc4cccc2c43)=N1`, the TGI in [1], in test [4], in test [5], in test [7], in test [8] and in test [9] was more than 100 µM each time.
With `Brc1ccc2c(c1)-c1nc3c(cc1CC2)CCc1ccc(Br)cc1-3`, the TGI in test [2], in test [3], in test [4], in [5], in test [6] and in test [8] was more than 100 µM in each case. The same molecule returned a TGI in test [9] of more than 100 µM.
Regarding `O=C(NN1C(=O)CSC1c1ccc(Cl)c(Cl)c1)c1ccncc1` (stereo not given), the TGI in test [1], in test [2], in test [4], in test [5], in test [6] and in test [7] was more than 100 µM each time. In addition, the TGI in [8] and in test [9] was more than 100 µM each time.
On to `CCOC(=O)C(C)NC(=O)N(C)C12CC3CC(CC(C3)C1)C2` (stereo not given), for which the TGI in test [1] is more than 500 µM; in test [2], more than 281 µM; in [3] it was more than 479 µM; in [4], more than 500 µM; in [5] it was more than 500 µM; in test [6], more than 500 µM. Also, the results for the TGI in test [7], in [8] and in test [9] were more than 500 µM, 286 µM and 492 µM, respectively.
In the case of `C=C1CC2C(=O)N(c3ccccc3)C(=O)C2CC1n1[nH]c(=O)n(Cc2ccccc2)c1=O` (stereo not given), the TGI in test [1], in test [2], in test [3], in [4], in test [5] and in test [6] was more than 100 µM each time. The TGI in [7], in test [8] and in test [9] was more than 100 µM each time.
As for `COC(=O)C(=O)C(C(=O)C(=O)Nc1cc([N+](=O)[O-])ccc1C#N)c1nc2ccccc2[nH]c1=O` (stereo not given), the TGI in test [1], in [2], in test [3], in test [5], in [6] and in test [7] was more than 100 µM each time. Besides, the TGI in test [8] and in test [9] was more than 100 µM in each case.
In the case of `NNC(=O)c1cccc2c1Oc1ccccc1S2`, the TGI in test [10], in [1], in test [2], in test [5], in test [6] and in [7] was more than 100 µM throughout. Further, the TGI in test [8] and in test [9] was more than 100 µM throughout.
`CCNC(=S)N/N=C/c1ccccn1`: the TGI was 58.5 µM in [10]; more than 100 µM in [1]; more than 100 µM in test [2]; more than 100 µM in test [4]; 7.56 µM in test [5]; more than 100 µM in [6]. Also, the TGI in [7] was 29.7 µM; in test [8] it was 19.9 µM; in [9] it was 23.6 µM.
`COC1OC2COC(C)(C)OC2C2OC(C)(C)OC12` (stereo not given): the TGI in test [10], in [1], in [2], in test [3], in [4] and in [5] was more than 100 µM each time. For the same molecule, the TGI in test [6], in test [8] and in [9] was more than 100 µM in each case.
With `O=c1oc2ccccc2c2nc3ccccc3cc12`, the TGI in test [10] is more than 100 µM; in test [1], more than 100 µM; in test [2] it was more than 100 µM; in test [4], more than 100 µM; in test [6], more than 100 µM; in test [7], 27.4 µM. Moreover, the TGI in [8] and in [9] was more than 100 µM throughout.
As to `CC12CCC(C/C1=N\NC(N)=O)C2(C)C` (stereo not given), the TGI in test [10], in test [1], in test [2], in test [3], in [4] and in test [5] was more than 100 µM throughout. Besides, the TGI in test [6], in [8] and in test [9] was more than 100 µM throughout.
As for `Cc1ncc([N+](=O)[O-])n1CCNC(=O)CCCCn1ccnc1[N+](=O)[O-]`, the TGI in [1], in [2], in test [3], in test [4], in test [5] and in [6] was more than 100 µM in each case. Besides, the TGI in [7], in test [8] and in test [9] was more than 100 µM throughout.
Consider `COc1ccc(/C=C/C(=O)c2sc(-n3nc(-c4ccccc4)cc3-c3ccccc3)nc2C)cc1OC`, for which the TGI in test [1] is more than 100 µM; in test [2] it was more than 100 µM; in test [3], 62.5 µM; in test [4], 92.6 µM; in test [5], 84.2 µM; in [6], 74.2 µM. The values for the TGI in test [7] and in test [9] were 81.1 µM and more than 100 µM, respectively.
In the case of `COc1cc(CCCOC2OC(COC3OCC(O)C(O)C3O)C(O)C(O)C2O)cc2cc(-c3ccc4c(c3)OCO4)oc12` (stereo not given), the TGI in test [1], in test [2], in [3], in [4], in test [5] and in [6] was more than 175 µM throughout. Besides, the TGI in test [7], in test [8] and in test [9] was more than 175 µM in each case.
